According to PubChem BioAssay (NCI):
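1) Cells in 96-well plates. 2) Compound, 48 h, 5 concentrations. 3) Linear interpolation between surrounding doses. 4) Unreached endpoint = highest concentration. GI50 marks 50% less growth. At the TGI there is no net growth.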

Assays:
Test in all cases: NCI-60 cell line screen, 48 h; in the data active = GI50 below about 0.43 µM; inactive = the rest
MDA-MB-231 breast = system: MDA-MB-231 breast
UACC-257 melanoma = system: UACC-257 melanoma
EKVX NSCLC = system: EKVX NSCLC
NCI-H226 lung = system: NCI-H226 lung
NCI-H23 lung = system: NCI-H23 lung
UO-31 renal = system: UO-31 renal
SNB-19 CNS = system: SNB-19 CNS
SF-295 CNS = system: SF-295 CNS
CAKI-1 renal = system: CAKI-1 renal
OVCAR-5 ovarian = system: OVCAR-5 ovarian
A498 renal = system: A498 renal
SNB-75 CNS = system: SNB-75 CNS
TK-10 renal = system: TK-10 renal
HT29 colon = system: HT29 colon
SK-MEL-2 melanoma = system: SK-MEL-2 melanoma
SF-539 CNS = system: SF-539 CNS
MCF7 breast = system: MCF7 breast
786-0 renal = system: 786-0 renal
BT-549 breast = system: BT-549 breast
KM12 colon = system: KM12 colon
SR leukemia = system: SR leukemia
HL-60(TB) leukemia = system: HL-60(TB) leukemia
COLO 205 colon = system: COLO 205 colon
IGROV1 ovarian = system: IGROV1 ovarian
HOP-92 NSCLC = system: HOP-92 NSCLC
MDA-MB-435 = system: MDA-MB-435
SK-OV-3 ovarian = system: SK-OV-3 ovarian
LOX IMVI melanoma = system: LOX IMVI melanoma
M14 melanoma = system: M14 melanoma
OVCAR-8 ovarian = system: OVCAR-8 ovarian
NCI-H460 lung = system: NCI-H460 lung
NCI/ADR-RES ovarian = system: NCI/ADR-RES ovarian
SK-MEL-5 melanoma = system: SK-MEL-5 melanoma
HOP-62 NSCLC = system: HOP-62 NSCLC
SK-MEL-28 melanoma = system: SK-MEL-28 melanoma
DU-145 prostate = system: DU-145 prostate
T-47D breast = system: T-47D breast
A549 NSCLC = system: A549 NSCLC
UACC-62 melanoma = system: UACC-62 melanoma
MALME-3M melanoma = system: MALME-3M melanoma
RXF 393 renal = system: RXF 393 renal
OVCAR-4 ovarian = system: OVCAR-4 ovarian
SW-620 colon = system: SW-620 colon
ACHN renal = system: ACHN renal
K-562 leukemia = system: K-562 leukemia
HCC-2998 colon = system: HCC-2998 colon
SN12C renal = system: SN12C renal
PC-3 prostate = system: PC-3 prostate
HCT-116 colon = system: HCT-116 colon
HS 578T breast = system: HS 578T breast
U251 CNS = system: U251 CNS
NCI-H522 lung = system: NCI-H522 lung
SF-268 CNS = system: SF-268 CNS
MOLT-4 leukemia = system: MOLT-4 leukemia
OVCAR-3 ovarian = system: OVCAR-3 ovarian
HCT-15 colon = system: HCT-15 colon

COc1cc(-c2cc(C(=O)N3CCN(C(=O)c4ccccc4NCc4cccs4)CC3)nc3cc(-c4ccccc4)nn23)cc(OC)c1OC
11.3 µM: TGI (OVCAR-3 ovarian)
75.4 µM: TGI (HL-60(TB) leukemia)
15.6 µM: TGI (SK-MEL-2 melanoma)
40.6 µM: TGI (DU-145 prostate)
26.5 µM: TGI (COLO 205 colon)
11.5 µM: TGI (SK-MEL-5 melanoma)
4.68 µM: TGI (NCI-H522 lung)
86.7 µM: TGI (HOP-62 NSCLC)
8.33 µM: TGI (CAKI-1 renal)
4.34 µM: TGI (MDA-MB-435)
inactive: GI50 (MDA-MB-231 breast) 8.67 µM | GI50 (UACC-257 melanoma) > 100 µM | GI50 (EKVX NSCLC) 53.9 µM | GI50 (NCI-H226 lung) 6.39 µM | GI50 (NCI-H23 lung) 15.7 µM | GI50 (UO-31 renal) 6.99 µM | GI50 (SNB-19 CNS) 8.99 µM | GI50 (SF-295 CNS) 3.78 µM | GI50 (CAKI-1 renal) 2780 nM | GI50 (OVCAR-5 ovarian) 15.1 µM | GI50 (A498 renal) 8.44 µM | GI50 (SNB-75 CNS) 3.32 µM | GI50 (TK-10 renal) 20.6 µM | GI50 (HT29 colon) 3.78 µM | GI50 (SK-MEL-2 melanoma) 3.73 µM | GI50 (SF-539 CNS) 9.85 µM | GI50 (MCF7 breast) 2560 nM | GI50 (786-0 renal) 11.4 µM | GI50 (BT-549 breast) 6.26 µM | GI50 (KM12 colon) 3.16 µM | GI50 (SR leukemia) 3.31 µM | GI50 (HL-60(TB) leukemia) 6.15 µM | GI50 (COLO 205 colon) 4.04 µM | GI50 (IGROV1 ovarian) 13.9 µM | GI50 (HOP-92 NSCLC) 2410 nM | GI50 (MDA-MB-435) 1160 nM | GI50 (SK-OV-3 ovarian) 5.5 µM | GI50 (LOX IMVI melanoma) 6.04 µM | GI50 (M14 melanoma) 5.91 µM | GI50 (OVCAR-8 ovarian) 30.3 µM | GI50 (NCI-H460 lung) 4.26 µM | GI50 (NCI/ADR-RES ovarian) 2600 nM | GI50 (SK-MEL-5 melanoma) 2850 nM | GI50 (HOP-62 NSCLC) 11 µM | GI50 (SK-MEL-28 melanoma) 9.62 µM | GI50 (DU-145 prostate) 5 µM | GI50 (T-47D breast) 8.38 µM | GI50 (A549 NSCLC) 5.68 µM | GI50 (UACC-62 melanoma) 2800 nM | GI50 (MALME-3M melanoma) > 100 µM | GI50 (RXF 393 renal) 2450 nM | GI50 (OVCAR-4 ovarian) 5.55 µM | GI50 (SW-620 colon) 4.7 µM | GI50 (ACHN renal) 4.93 µM | GI50 (K-562 leukemia) 1380 nM | GI50 (HCC-2998 colon) 14.3 µM | GI50 (SN12C renal) 29.1 µM | GI50 (PC-3 prostate) 4.18 µM | GI50 (HCT-116 colon) 4.49 µM | GI50 (HS 578T breast) 36.2 µM | GI50 (U251 CNS) 5.76 µM | GI50 (NCI-H522 lung) 1670 nM | GI50 (SF-268 CNS) 5.93 µM | GI50 (MOLT-4 leukemia) 43.7 µM | GI50 (OVCAR-3 ovarian) 3.03 µM | GI50 (HCT-15 colon) 4.43 µM
8.01 µM: TGI (RXF 393 renal)
15 µM: TGI (HT29 colon)
9.22 µM: TGI (HOP-92 NSCLC)
> 100 µM: TGI (MDA-MB-231 breast) | TGI (UACC-257 melanoma) | TGI (EKVX NSCLC) | TGI (NCI-H226 lung) | TGI (NCI-H23 lung) | TGI (UO-31 renal) | TGI (SNB-19 CNS) | TGI (SF-295 CNS) | TGI (OVCAR-5 ovarian) | TGI (A498 renal) | TGI (TK-10 renal) | TGI (SF-539 CNS) | TGI (MCF7 breast) | TGI (786-0 renal) | TGI (BT-549 breast) | TGI (KM12 colon) | TGI (SR leukemia) | TGI (IGROV1 ovarian) | TGI (SK-OV-3 ovarian) | TGI (LOX IMVI melanoma) | TGI (M14 melanoma) | TGI (OVCAR-8 ovarian) | TGI (NCI-H460 lung) | TGI (SK-MEL-28 melanoma) | TGI (T-47D breast) | TGI (A549 NSCLC) | TGI (UACC-62 melanoma) | TGI (MALME-3M melanoma) | TGI (OVCAR-4 ovarian) | TGI (SW-620 colon) | TGI (ACHN renal) | TGI (HCC-2998 colon) | TGI (SN12C renal) | TGI (PC-3 prostate) | TGI (HCT-116 colon) | TGI (HS 578T breast) | TGI (U251 CNS) | TGI (SF-268 CNS) | TGI (MOLT-4 leukemia) | TGI (HCT-15 colon)
17.4 µM: TGI (K-562 leukemia)
27.6 µM: TGI (SNB-75 CNS)
9.29 µM: TGI (NCI/ADR-RES ovarian)
